Data reported in patent publication US10131653B2, “Heterocyclic compound” (TAKEDA PHARMACEUTICAL COMPANY LIMITED, priority 2015, dated 2018).

How the values were obtained:
[1] = biological target: T1, human OX1 receptor (Homo sapiens, UniProt O43613); assay: Measurement of orexin receptor antagonistic activity (calcium fluorescence, FLIPRtetra); assay type: cell-based; conditions: CHO, 10 μM test compound; CHO cells expressing human OX1 receptor; OX-A 1 nM; read-out: Human Orexin1 receptor inhibition (at 10 μM)
T1 construct: expressed in transfected cells; host or cells: CHO cells
T1 sequence (O43613 1-425): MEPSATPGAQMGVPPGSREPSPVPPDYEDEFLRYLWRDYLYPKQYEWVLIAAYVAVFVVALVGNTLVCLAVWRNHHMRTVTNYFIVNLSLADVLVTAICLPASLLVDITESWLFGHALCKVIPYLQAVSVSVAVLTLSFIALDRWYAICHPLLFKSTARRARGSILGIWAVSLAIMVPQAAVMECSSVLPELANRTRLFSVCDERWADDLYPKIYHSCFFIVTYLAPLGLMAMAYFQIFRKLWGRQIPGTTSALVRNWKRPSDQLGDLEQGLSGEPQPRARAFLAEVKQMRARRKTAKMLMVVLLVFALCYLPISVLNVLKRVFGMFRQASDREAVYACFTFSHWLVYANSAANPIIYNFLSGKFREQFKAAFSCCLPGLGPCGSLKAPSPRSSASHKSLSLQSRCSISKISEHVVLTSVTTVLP
Procedure, shortened: (§1)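 Calcium fluorescence measured by FLIPRtetra every second for 2 min after orexin-A challenge, 1 nM final for OX1 and 0.3 nM final for OX2. Receptor-expressing CHO cells received compound in HEPES-buffered HBSS with 0.1% BSA just before agonist.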

[2] = biological target: T2, human OX2 receptor (Homo sapiens, UniProt O43614); assay: as above; assay type: cell-based; conditions: CHO, 10 μM test compound; CHO cells expressing human OX2 receptor; OX-A 0.3 nM; read-out: Human Orexin2 receptor inhibition (at 10 μM)
T2 construct: expressed in transfected cells; host or cells: CHO cells
T2 sequence (O43614 1-444): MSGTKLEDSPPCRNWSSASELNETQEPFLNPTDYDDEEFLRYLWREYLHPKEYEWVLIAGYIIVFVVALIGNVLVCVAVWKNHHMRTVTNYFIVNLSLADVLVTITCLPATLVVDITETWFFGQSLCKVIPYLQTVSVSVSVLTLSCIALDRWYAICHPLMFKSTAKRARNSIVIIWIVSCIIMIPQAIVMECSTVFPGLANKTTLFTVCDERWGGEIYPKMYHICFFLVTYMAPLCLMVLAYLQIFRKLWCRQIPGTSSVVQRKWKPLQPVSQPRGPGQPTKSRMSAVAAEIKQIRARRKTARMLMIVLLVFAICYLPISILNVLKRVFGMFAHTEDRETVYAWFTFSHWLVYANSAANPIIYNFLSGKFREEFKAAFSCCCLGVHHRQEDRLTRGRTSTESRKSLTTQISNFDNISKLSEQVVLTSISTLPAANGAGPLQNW
Procedure, shortened: as §1

| inhibition at 10 µM [1] [%] | inhibition at 10 µM [2] [%] | SMILES |
| --- | --- | --- |
| 25 | 81 | COC(=O)c1cc(N2CCN(C(=O)c3cc(Cl)ccc3-n3nccn3)C[C@H](C)O2)nc(C)n1 [Example 207, methyl 6-((7S)-5-(5-chloro-2-(2H-1,2,3-triazol-2-yl)benzoyl)-7-methyl-1,2,5-oxadiazepan-2-yl)-2-methylpyrimidine-4-carboxylate] |
| 8 | 14 | CCOC(=O)c1cc(N2CCN(C(=O)c3cc(Cl)ccc3-n3nccn3)C[C@H](C)O2)nc(C)n1 [Example 208, ethyl 6-((7S)-5-(5-chloro-2-(2H-1,2,3-triazol-2-yl)benzoyl)-7-methyl-1,2,5-oxadiazepan-2-yl)-2-methylpyrimidine-4-carboxylate] |
| -12 | 18 | Cc1cc(N2CCN(C(=O)c3ccccc3C#N)C[C@H](C)O2)nc(C)n1 [Example 209, 2-(((7S)-2-(2,6-dimethylpyrimidin-4-yl)-7-methyl-1,2,5-oxadiazepan-5-yl)carbonyl)benzonitrile] |
| 51 | 97 | Cc1cc(N2CCN(C(=O)c3c(F)cccc3-n3nccn3)C[C@H](C)O2)nc(C)n1 [Example 210, ((7S)-2-(2,6-dimethylpyrimidin-4-yl)-7-methyl-1,2,5-oxadiazepan-5-yl)(2-fluoro-6-(2H-1,2,3-triazol-2-yl)phenyl)methanone] |
| 21 | 80 | Cc1cc(N2CCN(C(=O)c3ccc(Cl)cc3-n3ccnn3)C[C@H](C)O2)nc(C)n1 [Example 211, (4-chloro-2-(1H-1,2,3-triazol-1-yl)phenyl)((7S)-2-(2,6-dimethylpyrimidin-4-yl)-7-methyl-1,2,5-oxadiazepan-5-yl)methanone] |
| 47 | 102 | Cc1cc(N2CCN(C(=O)c3ccccc3-c3ncccn3)[C@H](C)CO2)nc(C)n1 [Example 213, ((6R)-2-(2,6-dimethylpyrimidin-4-yl)-6-methyl-1,2,5-oxadiazepan-5-yl)(2-(pyrimidin-2-yl)phenyl)methanone] |
| 55 | 103 | Cc1nc(N2CCN(C(=O)c3ccccc3-c3ncccn3)[C@H](C)CO2)cc(C(F)(F)F)n1 [Example 214, ((6R)-6-methyl-2-(2-methyl-6-(trifluoromethyl)pyrimidin-4-yl)-1,2,5-oxadiazepan-5-yl)(2-(pyrimidin-2-yl)phenyl)methanone] |
| 40 | 102 | Cc1ncc(Cl)c(N2CCN(C(=O)c3cc(Cl)ccc3-n3nccn3)[C@H](C)CO2)n1 [Example 215, ((6R)-2-(5-chloro-2-methylpyrimidin-4-yl)-6-methyl-1,2,5-oxadiazepan-5-yl)(5-chloro-2-(2H-1,2,3-triazol-2-yl)phenyl)methanone] |

Second part, the molecule before the results:

| SMILES | inhibition at 10 µM [1] [%] | inhibition at 10 µM [2] [%] |
| --- | --- | --- |
| Cc1cc(N2CCN(C(=O)c3cc(Cl)ccc3-n3nccn3)[C@H](C)CO2)nc(C)n1 [Example 194, (5-chloro-2-(2H-1,2,3-triazol-2-yl)phenyl)((6R)-2-(2,6-dimethylpyrimidin-4-yl)-6-methyl-1,2,5-oxadiazepan-5-yl)methanone] | 66 | 100 |
| Cc1cc(N2CCN(C(=O)c3cc(Cl)ccc3-c3ncccn3)[C@H](C)CO2)nc(C)n1 [Example 195, (5-chloro-2-(pyrimidin-2-yl)phenyl)((6R)-2-(2,6-dimethylpyrimidin-4-yl)-6-methyl-1,2,5-oxadiazepan-5-yl)methanone] | 81 | 102 |
| Cc1ccc(-c2ncccn2)c(C(=O)N2CCN(c3cc(C)nc(C)n3)O[C@@H](C)C2)c1 [Example 196, ((7S)-2-(2,6-dimethylpyrimidin-4-yl)-7-methyl-1,2,5-oxadiazepan-5-yl)(5-methyl-2-(pyrimidin-2-yl)phenyl)methanone] | 89 | 100 |
| Cc1cc(N2CCN(C(=O)c3cc(Cl)ccc3-c3ncccn3)C[C@H](C)O2)nc(C)n1 [Example 197, (5-chloro-2-(pyrimidin-2-yl)phenyl)((7S)-2-(2,6-dimethylpyrimidin-4-yl)-7-methyl-1,2,5-oxadiazepan-5-yl)methanone] | 96 | 102 |
| Cc1cc(N2CCN(C(=O)c3cc(F)c(F)cc3-c3ncccn3)C[C@H](C)O2)nc(C)n1 [Example 198, (4,5-difluoro-2-(pyrimidin-2-yl)phenyl)((7S)-2-(2,6-dimethylpyrimidin-4-yl)-7-methyl-1,2,5-oxadiazepan-5-yl)methanone] | 80 | 98 |
| Cc1cc(N2CCN(C(=O)c3cc(C(F)(F)F)ccc3-n3nccn3)C[C@H](C)O2)nc(C)n1 [Example 199, ((7S)-2-(2,6-dimethylpyrimidin-4-yl)-7-methyl-1,2,5-oxadiazepan-5-yl)(2-(2H-1,2,3-triazol-2-yl)-5-(trifluoromethyl)phenyl)methanone] | 42 | 100 |
| Cc1cc(N2CCN(C(=O)c3ccc(Cl)cc3-n3nccn3)C[C@H](C)O2)nc(C)n1 [Example 200, (4-chloro-2-(2H-1,2,3-triazol-2-yl)phenyl)((7S)-2-(2,6-dimethylpyrimidin-4-yl)-7-methyl-1,2,5-oxadiazepan-5-yl)methanone] | 83 | 100 |
| CCc1ccc(-n2nccn2)c(C(=O)N2CCN(c3cc(C)nc(C)n3)O[C@@H](C)C2)c1 [Example 201, ((7S)-2-(2,6-dimethylpyrimidin-4-yl)-7-methyl-1,2,5-oxadiazepan-5-yl)(5-ethyl-2-(2H-1,2,3-triazol-2-yl)phenyl)methanone] | 60 | 101 |
| Cc1cc(N2CCN(C(=O)c3cc(C(F)(F)F)ccc3-n3nccn3)CCO2)nc(C)n1 [Example 202, (2-(2,6-dimethylpyrimidin-4-yl)-1,2,5-oxadiazepan-5-yl)(2-(2H-1,2,3-triazol-2-yl)-5-(trifluoromethyl)phenyl)methanone] | 17 | 102 |
| CCc1ccc(-n2nccn2)c(C(=O)N2CCON(c3cc(C)nc(C)n3)CC2)c1 [Example 203, (2-(2,6-dimethylpyrimidin-4-yl)-1,2,5-oxadiazepan-5-yl)(5-ethyl-2-(2H-1,2,3-triazol-2-yl)phenyl)methanone] | 25 | 101 |
| Cc1cc(N2CCN(C(=O)c3ccc(Cl)cc3-n3nccn3)CCO2)nc(C)n1 [Example 204, (4-chloro-2-(2H-1,2,3-triazol-2-yl)phenyl)(2-(2,6-dimethylpyrimidin-4-yl)-1,2,5-oxadiazepan-5-yl)methanone] | 70 | 101 |
| Cc1cc(N2CCN(C(=O)c3ccc(Br)cc3-n3nccn3)C[C@H](C)O2)nc(C)n1 [Example 205, (4-bromo-2-(2H-1,2,3-triazol-2-yl)phenyl)((7S)-2-(2,6-dimethylpyrimidin-4-yl)-7-methyl-1,2,5-oxadiazepan-5-yl)methanone] | 82 | 100 |
| Cc1nccc(N2CCN(C(=O)c3ccccc3-c3ncccn3)C[C@H](C)O2)n1 [Example 206, ((7S)-7-methyl-2-(2-methylpyrimidin-4-yl)-1,2,5-oxadiazepan-5-yl)(2-(pyrimidin-2-yl)phenyl)methanone] | 28 | 100 |
